Measured values published in the supplement of paper PMC10307832.

Tests used:
Assay in all cases: relative viability (nuclei count vs DMSO), 5 days (fraction); higher = more cells survive
TPCA-1 + Dasatinib = compound: C1=CC(=CC=C1C2=CC(=C(S2)NC(=O)N)C(=O)N)F [TPCA-1] + Cc1nc(Nc2ncc(C(=O)Nc3c(C)cccc3Cl)s2)cc(N2CCN(CCO)CC2)n1 [Dasatinib] (partner 0.075 µM)
In short: (§1)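 A single step with final 0.05% Triton X-100, 1% formaldehyde and 1 ug/ml Hoechst fixed the cells and stained nuclei 5 days after treatment. Lung cancer cell lines in 1536-well plates had been treated by pin tool the day after seeding with one drug alone or a fixed anchor-drug dose plus five library-drug doses (not always all listed) in √10 steps, and nuclei were counted on 4× images. Relative viability is the ratio of nuclei in treated wells to nuclei in vehicle wells, taken as the median of duplicate plates.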

[1] = compound: C[C@]12O[C@H](C[C@]1(O)CO)n1c3ccccc3c3c4c(c5c6ccccc6n2c5c31)CNC4=O [Lestaurtinib] + CC(=O)Nc1cccc(-n2c(=O)n(C3CC3)c(=O)c3c(Nc4ccc(I)cc4F)n(C)c(=O)c(C)c32)c1 [Trametinib] (partner 0.02 µM)
In short: as §1

[2] = compound: C1/C(=C\C2=CC=CS2)/C(=O)/C(=C/C3=CC=CS3)/C1 + Nc1ncn([C@H]2C[C@H](O)[C@@H](CO)O2)c(=O)n1 [Decitabine] (partner 2 µM)
In short: as §1

[3] = compound: C[C@]12O[C@H](C[C@]1(O)CO)n1c3ccccc3c3c4c(c5c6ccccc6n2c5c31)CNC4=O [Lestaurtinib] + CC(C)C[C@H](NC(=O)[C@H](Cc1ccccc1)NC(=O)c1cnccn1)B(O)O [Bortezomib] (partner 0.002 µM)
In short: as §1

Work on LC-2-ad yielded a relative viability (TPCA-1 + Dasatinib; first compound 0.04 µM) of 0.79, a relative viability (TPCA-1 + Dasatinib; first compound 0.1265 µM) of 0.417 and a relative viability (TPCA-1 + Dasatinib; first compound 0.4 µM) of 0.544. For the same cell line, the relative viability (TPCA-1 + Dasatinib; first compound 1.265 µM) was 0.524, the relative viability (TPCA-1 + Dasatinib; first compound 4 µM) was 0.212 and the relative viability ([1]; first compound 0.005 µM) was 0.932. The relative viability ([1]; first compound 0.01581 µM) was 1.02, the relative viability ([1]; first compound 0.05 µM) was 0.792 and the relative viability ([1]; first compound 0.1581 µM) was 0.569. For the same cell line, the relative viability ([1]; first compound 0.5 µM) was 0.505, the relative viability ([2]; first compound 0.2 µM) was 0.861 and the relative viability ([2]; first compound 0.6325 µM) was 0.823. The relative viability ([2]; first compound 2 µM) was 0.797, the relative viability ([2]; first compound 6.325 µM) was 0.666 and the relative viability ([2]; first compound 20 µM) was 0.748. For the same cell line, the relative viability ([3]; first compound 0.005 µM) was 0.966, the relative viability ([3]; first compound 0.01581 µM) was 1.2 and the relative viability ([3]; first compound 0.05 µM) was 0.882. The relative viability ([3]; first compound 0.1581 µM) was 0.407 and the relative viability ([3]; first compound 0.5 µM) was 0.329.

Cell Line NCI-H647 has a relative viability (TPCA-1 + Dasatinib; first compound 0.04 µM) of 0.21, a relative viability (TPCA-1 + Dasatinib; first compound 0.1265 µM) of 0.15 and a relative viability (TPCA-1 + Dasatinib; first compound 0.4 µM) of 0.231. For the same cell line, the relative viability (TPCA-1 + Dasatinib; first compound 1.265 µM) was 0.0911, the relative viability (TPCA-1 + Dasatinib; first compound 4 µM) was 0.079 and the relative viability ([1]; first compound 0.005 µM) was 0.478. For the same cell line, the relative viability ([1]; first compound 0.01581 µM) was 0.41, the relative viability ([1]; first compound 0.05 µM) was 0.22 and the relative viability ([1]; first compound 0.1581 µM) was 0.29. The relative viability ([1]; first compound 0.5 µM) was 0.169, the relative viability ([2]; first compound 0.2 µM) was 0.43 and the relative viability ([2]; first compound 0.6325 µM) was 0.424. The relative viability ([2]; first compound 2 µM) was 0.32, the relative viability ([2]; first compound 6.325 µM) was 0.441 and the relative viability ([2]; first compound 20 µM) was 0.357. For the same cell line, the relative viability ([3]; first compound 0.005 µM) was 0.994, the relative viability ([3]; first compound 0.01581 µM) was 0.828 and the relative viability ([3]; first compound 0.05 µM) was 0.276. For the same cell line, the relative viability ([3]; first compound 0.1581 µM) was 0.244 and the relative viability ([3]; first compound 0.5 µM) was 0.133.

NCI-H1755 gave a relative viability (TPCA-1 + Dasatinib; first compound 0.04 µM) of 0.499, a relative viability (TPCA-1 + Dasatinib; first compound 0.1265 µM) of 0.424 and a relative viability (TPCA-1 + Dasatinib; first compound 0.4 µM) of 0.396. The relative viability (TPCA-1 + Dasatinib; first compound 1.265 µM) was 0.31, the relative viability (TPCA-1 + Dasatinib; first compound 4 µM) was 0.285 and the relative viability ([1]; first compound 0.005 µM) was 0.766. It also gave a relative viability ([1]; first compound 0.01581 µM) of 0.774, a relative viability ([1]; first compound 0.05 µM) of 0.731 and a relative viability ([1]; first compound 0.1581 µM) of 0.571. The relative viability ([1]; first compound 0.5 µM) was 0.407, the relative viability ([2]; first compound 0.2 µM) was 0.74 and the relative viability ([2]; first compound 0.6325 µM) was 0.706. The relative viability ([2]; first compound 2 µM) was 0.743, the relative viability ([2]; first compound 6.325 µM) was 0.676 and the relative viability ([2]; first compound 20 µM) was 0.706. It also gave a relative viability ([3]; first compound 0.005 µM) of 1.01, a relative viability ([3]; first compound 0.01581 µM) of 0.95 and a relative viability ([3]; first compound 0.05 µM) of 0.938. The relative viability ([3]; first compound 0.1581 µM) was 0.455 and the relative viability ([3]; first compound 0.5 µM) was 0.371.

For EPLC-272H, the relative viability (TPCA-1 + Dasatinib; first compound 0.04 µM) was 0.449, the relative viability (TPCA-1 + Dasatinib; first compound 0.1265 µM) was 0.33 and the relative viability (TPCA-1 + Dasatinib; first compound 0.4 µM) was 0.365. The relative viability (TPCA-1 + Dasatinib; first compound 1.265 µM) was 0.421, the relative viability (TPCA-1 + Dasatinib; first compound 4 µM) was 0.301 and the relative viability ([1]; first compound 0.005 µM) was 0.271. The relative viability ([1]; first compound 0.01581 µM) was 0.23, the relative viability ([1]; first compound 0.05 µM) was 0.218 and the relative viability ([1]; first compound 0.1581 µM) was 0.224. It also gave a relative viability ([1]; first compound 0.5 µM) of 0.286, a relative viability ([2]; first compound 0.2 µM) of 0.379 and a relative viability ([2]; first compound 0.6325 µM) of 0.349. It also gave a relative viability ([2]; first compound 2 µM) of 0.446, a relative viability ([2]; first compound 6.325 µM) of 0.282 and a relative viability ([2]; first compound 20 µM) of 0.339. It also gave a relative viability ([3]; first compound 0.005 µM) of 1.02, a relative viability ([3]; first compound 0.01581 µM) of 1.15 and a relative viability ([3]; first compound 0.05 µM) of 0.603. It also gave a relative viability ([3]; first compound 0.1581 µM) of 0.828 and a relative viability ([3]; first compound 0.5 µM) of 0.486.

NCI-H1437 showed a relative viability (TPCA-1 + Dasatinib; first compound 0.04 µM) of 0.462, a relative viability (TPCA-1 + Dasatinib; first compound 0.1265 µM) of 0.368 and a relative viability (TPCA-1 + Dasatinib; first compound 0.4 µM) of 0.565. It also gave a relative viability (TPCA-1 + Dasatinib; first compound 1.265 µM) of 0.408, a relative viability (TPCA-1 + Dasatinib; first compound 4 µM) of 0.325 and a relative viability ([1]; first compound 0.005 µM) of 0.569. For the same cell line, the relative viability ([1]; first compound 0.01581 µM) was 0.684, the relative viability ([1]; first compound 0.05 µM) was 0.56 and the relative viability ([1]; first compound 0.1581 µM) was 0.691. It also gave a relative viability ([1]; first compound 0.5 µM) of 0.603, a relative viability ([2]; first compound 0.2 µM) of 0.547 and a relative viability ([2]; first compound 0.6325 µM) of 0.521. The relative viability ([2]; first compound 2 µM) was 0.508, the relative viability ([2]; first compound 6.325 µM) was 0.518 and the relative viability ([2]; first compound 20 µM) was 0.612. For the same cell line, the relative viability ([3]; first compound 0.005 µM) was 0.67, the relative viability ([3]; first compound 0.01581 µM) was 0.479 and the relative viability ([3]; first compound 0.05 µM) was 0.431. The relative viability ([3]; first compound 0.1581 µM) was 0.521 and the relative viability ([3]; first compound 0.5 µM) was 0.429.

EKVX gave a relative viability (TPCA-1 + Dasatinib; first compound 0.04 µM) of 0.535, a relative viability (TPCA-1 + Dasatinib; first compound 0.1265 µM) of 0.542 and a relative viability (TPCA-1 + Dasatinib; first compound 0.4 µM) of 0.529. It also gave a relative viability (TPCA-1 + Dasatinib; first compound 1.265 µM) of 0.487, a relative viability (TPCA-1 + Dasatinib; first compound 4 µM) of 0.627 and a relative viability ([1]; first compound 0.005 µM) of 0.507. The relative viability ([1]; first compound 0.05 µM) was 0.362, the relative viability ([1]; first compound 0.1581 µM) was 0.372 and the relative viability ([1]; first compound 0.5 µM) was 0.356. The relative viability ([2]; first compound 0.2 µM) was 0.359, the relative viability ([2]; first compound 0.6325 µM) was 0.267 and the relative viability ([2]; first compound 2 µM) was 0.406. For the same cell line, the relative viability ([2]; first compound 20 µM) was 0.452, the relative viability ([3]; first compound 0.005 µM) was 1.1 and the relative viability ([3]; first compound 0.01581 µM) was 1.26. For the same cell line, the relative viability ([3]; first compound 0.05 µM) was 0.999, the relative viability ([3]; first compound 0.1581 µM) was 1.19 and the relative viability ([3]; first compound 0.5 µM) was 0.679.

Work on NCI-H1651 yielded a relative viability (TPCA-1 + Dasatinib; first compound 0.04 µM) of 0.444, a relative viability (TPCA-1 + Dasatinib; first compound 0.1265 µM) of 0.382 and a relative viability (TPCA-1 + Dasatinib; first compound 0.4 µM) of 0.402. For the same cell line, the relative viability (TPCA-1 + Dasatinib; first compound 1.265 µM) was 0.395, the relative viability (TPCA-1 + Dasatinib; first compound 4 µM) was 0.383 and the relative viability ([1]; first compound 0.005 µM) was 0.86. The relative viability ([1]; first compound 0.01581 µM) was 0.919, the relative viability ([1]; first compound 0.05 µM) was 0.887 and the relative viability ([1]; first compound 0.1581 µM) was 0.832. For the same cell line, the relative viability ([1]; first compound 0.5 µM) was 0.77, the relative viability ([2]; first compound 0.2 µM) was 0.616 and the relative viability ([2]; first compound 0.6325 µM) was 0.646. The relative viability ([2]; first compound 2 µM) was 0.868, the relative viability ([2]; first compound 6.325 µM) was 0.357 and the relative viability ([2]; first compound 20 µM) was 0.587. The relative viability ([3]; first compound 0.005 µM) was 0.878, the relative viability ([3]; first compound 0.01581 µM) was 1.07 and the relative viability ([3]; first compound 0.05 µM) was 0.883. For the same cell line, the relative viability ([3]; first compound 0.1581 µM) was 1.03 and the relative viability ([3]; first compound 0.5 µM) was 0.648.
